We go through one compound from ChEMBL document CHEMBL3044997, “Cytotoxic Effect of Coscinium Fenestratrum (Gaertn.) Colebr. and its Active Principle Berberine on L929 Cells” (2005).

Molecules are shown by their SMILES.

Common to all, as to format: functional
The test system of assay [1] is L929. As to the kind of experiment: Cytotoxicity against Mus musculus (mouse) L929 cells assessed as metabolically active cells at 100 ug/ml after 24 hr by MTT assay relative to control. For orientation: Formazan colour is commonly taken as a measure of viable cells.
Assay [2] relates to L929. As to the kind of experiment: Cytotoxicity against Mus musculus (mouse) L929 cells assessed as metabolically active cells at 200 ug/ml after 24 hr by MTT assay relative to control.
Assay [3] has as its system L929. As to the kind of experiment: Cytotoxicity against Mus musculus (mouse) L929 cells assessed as metabolically active cells at 50 ug/ml after 24 hr by MTT assay relative to control.
Assay [4] relates to L929. Briefly: Cytotoxicity against Mus musculus (mouse) L929 cells assessed as metabolically active cells at 150 ug/ml after 24 hr by MTT assay relative to control.

With `COc1ccc2cc3[n+](cc2c1OC)CCc1cc2c(cc1-3)OCO2.[Cl-]` [BERBERINE CHLORIDE], the Activity in the assay with L929 [1] is 67.41%; with L929 [2], 23.57%; in the assay with L929 [3] it was 106.45%; in the assay on L929 [4], 41.77%.
